This assay deals with Sphingosine kinase 1 (Homo sapiens, UniProt Q9NYA1). Briefly: Competitive inhibition of SK1 (unknown origin) in presence of ATP.

Structures are written as SMILES.

Sphingosine kinase 1, sequence (Q9NYA1 whole entry): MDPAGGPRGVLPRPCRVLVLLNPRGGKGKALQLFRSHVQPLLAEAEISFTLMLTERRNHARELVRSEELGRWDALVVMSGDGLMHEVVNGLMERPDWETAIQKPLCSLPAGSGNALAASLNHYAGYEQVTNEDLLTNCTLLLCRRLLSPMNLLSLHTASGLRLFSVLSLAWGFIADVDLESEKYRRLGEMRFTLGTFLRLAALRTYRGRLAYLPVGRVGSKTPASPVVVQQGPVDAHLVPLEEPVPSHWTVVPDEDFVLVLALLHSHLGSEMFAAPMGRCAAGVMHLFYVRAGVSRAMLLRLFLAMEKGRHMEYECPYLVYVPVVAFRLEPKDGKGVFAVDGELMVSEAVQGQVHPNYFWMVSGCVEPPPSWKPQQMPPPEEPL

In general, Ki refers to a dissociation constant, usually derived from enzyme kinetics or from competition with a known ligand. Take `CCCCCCCCc1ccc(CC[C@](N)(/C=C/P(=O)(O)O)CO)cc1`: the Ki turned out to be 10 µM.

The record behind these values is BindingDB's records for doi:10.1016/j.bmc.2013.02.042 (The City University of New York, 2013).
